This passage reports IC50 and viability, T/C results from PubChem BioAssay AID2060351 (Molecular Pharmacology Branch, DTP, NCI, 2025).

The test deals with 521955-158-R7-J2-PDC spheroids, viability % test/control. Briefly: Anticancer human tumor 521955-158-R7-J2-PDC patient-derived pancreatic carcinoma cell line growth inhibition [TAK]. Conditions: spheroids with HUVEC and MSC; for viability, T/C: stronger effect = lower value. A digest of the protocol:
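Drug combinations, each paired with TAK-243 or ipatasertib, were tested on multi-cell spheroids of 60% malignant cells, 25% HUVEC and 15% hMSC. Top concentrations were at or near the clinical Cmax (10 microM if undetermined), decreasing by half-log; viability is given as % test/control.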

Setting [1] is: curve of first compound, second compound 0.3 µM.
[2] abbreviates: curve of first compound, second compound 0.949 µM.
The mark [3] stands for this setting: curve of first compound, second compound 3 µM.
Setting [4] is: curve of first compound, second compound 9.49 µM.
Where [5] appears, read: curve of first compound, second compound 30 µM.
[6] abbreviates: second compound 0.3 µM, first compound 0.000316 µM.
Where [7] appears, read: second compound 0.3 µM, first compound 0.001 µM.
Setting [8] is: second compound 0.3 µM, first compound 0.00316 µM.
Setting [9] is: second compound 0.3 µM, first compound 0.01 µM.
Setting [10] is: second compound 0.3 µM, first compound 0.0316 µM.
The mark [11] stands for this setting: second compound 0.3 µM, first compound 0.1 µM.
Where [12] appears, read: second compound 0.949 µM, first compound 0.000316 µM.
The mark [13] stands for this setting: second compound 0.949 µM, first compound 0.001 µM.
The mark [14] stands for this setting: second compound 0.949 µM, first compound 0.00316 µM.
The mark [15] stands for this setting: second compound 0.949 µM, first compound 0.01 µM.
Setting [16] is: second compound 0.949 µM, first compound 0.0316 µM.
Setting [17] is: second compound 0.949 µM, first compound 0.1 µM.
The mark [18] stands for this setting: second compound 3 µM, first compound 0.000316 µM.
Where [19] appears, read: second compound 3 µM, first compound 0.001 µM.
The mark [20] stands for this setting: second compound 3 µM, first compound 0.00316 µM.
[21] abbreviates: second compound 3 µM, first compound 0.01 µM.
The mark [22] stands for this setting: second compound 3 µM, first compound 0.0316 µM.
The mark [23] stands for this setting: second compound 3 µM, first compound 0.1 µM.
Setting [24] is: second compound 9.49 µM, first compound 0.000316 µM.
Where [25] appears, read: second compound 9.49 µM, first compound 0.001 µM.
[26] abbreviates: second compound 9.49 µM, first compound 0.00316 µM.
Setting [27] is: second compound 9.49 µM, first compound 0.01 µM.
Setting [28] is: second compound 9.49 µM, first compound 0.0316 µM.
[29] abbreviates: second compound 9.49 µM, first compound 0.1 µM.
The mark [30] stands for this setting: second compound 30 µM, first compound 0.000316 µM.
Where [31] appears, read: second compound 30 µM, first compound 0.001 µM.
The mark [32] stands for this setting: second compound 30 µM, first compound 0.00316 µM.
Where [33] appears, read: second compound 30 µM, first compound 0.01 µM.
The mark [34] stands for this setting: second compound 30 µM, first compound 0.0316 µM.
Setting [35] is: second compound 30 µM, first compound 0.1 µM.

pIC50: −log10 of the molar value. Where “and” joins values, the source holds several entries; their conditions need not be identical. Equal entries are not always repeated.
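Further: spheroids exposed to compound for 7 days before readout.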
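Wherever viability, T/C is given: 100% = DMSO vehicle control wells.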

On to `CC(C)n1nc(-c2ccc3oc(N)nc3c2)c2c(N)ncnc21` + CC(C)NCC(C(=O)N1CCN(c2ncnc3c2C(C)CC3O)CC1)c1ccc(Cl)cc1, for which the pIC50 (commonly −log10 of the IC50, conventionally taken in molar units) under setting [1] was < 7.00; the pIC50 under setting [2] was < 7.00; the pIC50 under setting [3] was < 7.00; the negative-log IC50 (pIC50) under setting [4] was < 7.00; the negative logarithm of the IC50 (pIC50) under setting [5] is < 7.00. Moreover, the viability, T/C – broadly, the result in the treated group divided by that in the control group, in per cent – was 112% under setting [6]; 74.7% under setting [7]; 78.8% under setting [8]; 134% under setting [9]; 98.1% under setting [10]; 69% under setting [11]. For the same compound, the viability, T/C by setting is: under setting [12], 118%; under setting [13], 84.9%; under setting [14], 100%; under setting [15], 75.3%; under setting [16], 99%; under setting [17], 100%. Moreover, the viability, T/C is 91.3% under setting [18]; 105% under setting [19]; 86.8% under setting [20]; 94.3% under setting [21]; 132% under setting [22]; 120% under setting [23]. Moreover, the viability, T/C reads like this: under setting [24], 89.9%; under setting [25], 98.3%; under setting [26], 83.9%; under setting [27], 113%; under setting [28], 120%; under setting [29], 106%. Also, the viability, T/C is, setting by setting: under setting [30], 102%; under setting [31], 115%; under setting [32], 103%; under setting [33], 127%; under setting [34], 117%; under setting [35], 80%.

In the case of `CCCS(=O)(=O)Nc1ccc(F)c(C(=O)c2c[nH]c3ncc(-c4ccc(Cl)cc4)cc23)c1F`, the viability, T/C is, setting by setting: (compound 0.316 µM) 98.6% and 98.4%; (compound 1 µM) 97.2% and 95.1%; (compound 3.16 µM) 94.6% and 78.2%; (compound 10 µM) 108% and 71%; (compound 31.6 µM) 82.2% and 67.9%; (compound 100 µM) 90.6% and 82.5%. In addition, the negative-log IC50 (pIC50) (curve of compound) is < 4.00.

As to `CC(=O)Nc1cccc(-n2c(=O)n(C3CC3)c(=O)c3c(Nc4ccc(I)cc4F)n(C)c(=O)c(C)c32)c1`, the viability, T/C (compound 94.9 pM) was 97.3% and 89.9%; the viability, T/C (compound 0.0003 µM) was 67.1% and 65.7%; the viability, T/C (compound 0.000949 µM) was 57.9% and 54.9%; the viability, T/C (compound 0.003 µM) was 48.7% and 39.5%; the viability, T/C (compound 0.00949 µM) is 32.1% and 27.2%; the viability, T/C (compound 0.03 µM) was 19.2% and 16.3%. The negative logarithm of the IC50 (pIC50) (curve of compound) is 8.72 and 8.90.

As to `Cc1nc(NC(=O)N2CCCC2C(N)=O)sc1-c1ccnc(C(C)(C)C(F)(F)F)c1` (stereo not given), the viability, T/C (compound 0.0316 µM) is 83.2% and 92.5%; the viability, T/C (compound 0.1 µM) is 64.2% and 84.5%; the viability, T/C (compound 0.316 µM) is 59.4% and 74%; the viability, T/C (compound 1 µM) was 70.8% and 73.5%; the viability, T/C (compound 3.16 µM) is 58.1% and 52.5%; the viability, T/C (compound 10 µM) was 34.1% and 30.3%. For the same compound, the pIC50 (curve of compound) is 5.34 and 5.43.

In the case of `CC(C)CC(NC(=O)CNC(=O)c1cc(Cl)ccc1Cl)B1OC(=O)CC(CC(=O)O)(C(=O)O)O1` (stereo not given), the viability, T/C is, setting by setting: (compound 0.000316 µM) 111% and 81.1%; (compound 0.001 µM) 73.9% and 80.3%; (compound 0.00316 µM) 90.1% and 80%; (compound 0.01 µM) 111% and 82.8%; (compound 0.0316 µM) 65.7% and 50.1%; (compound 0.1 µM) 2.27% and 1.64%. Moreover, under “curve of compound”, the pIC50 is 7.38 and 7.50.

`COC1CC2CCC(C)C(O)(O2)C(=O)C(=O)N2CCCCC2C(=O)OC(C(C)CC2CCC(OCCO)C(OC)C2)CC(=O)C(C)C=C(C)C(O)C(OC)C(=O)C(C)CC(C)C=CC=CC=C1C` (stereo not given) + CC(C)NCC(C(=O)N1CCN(c2ncnc3c2C(C)CC3O)CC1)c1ccc(Cl)cc1: the negative logarithm of the IC50 (pIC50) under setting [1] was < 7.00; the pIC50 under setting [2] was < 7.00; the pIC50 under setting [3] is < 7.00; the negative-log IC50 (pIC50) under setting [4] is < 7.00; the negative-log IC50 (pIC50) under setting [5] is < 7.00. Further, the viability, T/C under setting [6] is 103%; the viability, T/C under setting [7] is 72.1%; the viability, T/C under setting [8] is 71.6%; the viability, T/C under setting [9] is 102%; the viability, T/C under setting [10] was 110%; the viability, T/C under setting [11] is 115%. Also, the viability, T/C was 81.6% under setting [12]; 73.5% under setting [13]; 100% under setting [14]; 91% under setting [15]; 111% under setting [16]; 85.9% under setting [17]. Moreover, the viability, T/C is, setting by setting: under setting [18], 84.7%; under setting [19], 89.1%; under setting [20], 74.7%; under setting [21], 89.5%; under setting [22], 104%; under setting [23], 93.7%. Further, the viability, T/C reads like this: under setting [24], 86.2%; under setting [25], 86.3%; under setting [26], 82.2%; under setting [27], 85.8%; under setting [28], 106%; under setting [29], 105%. The viability, T/C under setting [30] was 90.3%; the viability, T/C under setting [31] is 108%; the viability, T/C under setting [32] was 98.2%; the viability, T/C under setting [33] was 106%; the viability, T/C under setting [34] was 104%; the viability, T/C under setting [35] was 116%.

As to `CC(C)(C)c1nc(-c2cccc(NS(=O)(=O)c3c(F)cccc3F)c2F)c(-c2ccnc(N)n2)s1`, the viability, T/C (compound 0.0316 µM) was 105% and 103%; the viability, T/C (compound 0.1 µM) was 113% and 78.3%; the viability, T/C (compound 0.316 µM) was 99% and 128%; the viability, T/C (compound 1 µM) is 101% and 131%; the viability, T/C (compound 3.16 µM) is 104% and 97.7%; the viability, T/C (compound 10 µM) is 79% and 93.3%. In addition, for the setting “curve of compound”, the pIC50 is < 5.00.
